Laboratory results published in US20130203822A1, “COMPOUNDS FOR TREATMENT OF TUMORS BEARING D[…] ONCOPROTEINS” (priority 2010, published 2013).
Counter-ions that a name gives are not always drawn.

What was measured:
[1] = system: MYCN 3′UTR; assay: luciferase reporter screening and counter-screening in CHP134-MYCN and CHP134-CTRL stable clones; type: cell-based, human; details: 24 h; for dependence of luciferase reporter upregulation on MYCN 3′UTR (counter-screening): 2 uM, CHP134-MYCN#3 versus CHP134-CTRL#19
Method: Reporter constructs containing the firefly luciferase reporter gene under the control of the CMV viral promoter and followed by either the whole MYCN 3′UTR (pGL4.26-MYCN3UTR) or the only SV40 poly(A) region (pGL4.26-CTRL) as a control were produced as disclosed above.
The CHP134 neuroblastoma cell line was used to generate stable transfection clones as disclosed in Example 3.
The screening was carried out in the CHP134-MYCN#3 stable clone with the Spectrum Collection small molecule library (MicroSource Discovery) composed of 2000 compounds stored at 10 mM in DMSO: 800 drugs that have been introduced in the US, 200 drugs that are limited in use to Europe and Japan, 580 natural products, 420 compounds with reported biological activities.
The assay was run in triplicates in 96-well plates. CHP134-MYCN stable clone cells were trypsinized, harvested and resuspended in culture medium. Tecan Multichannel arm (MCA96) of a Tecan EVO 200 robot (Tecan) was used to add 150 uL containing 15000 cells to the 96-well white CulturePlate-96 (Perkin Elmer).
After adhesion, the 10 mM compounds were diluted to 75 uM in PBS and immediately pipetted into the 96 wells in order to have a final concentration of 2 uM in the cells. Baseline controls were obtained treating the first column wells with PBS+DMSO at the same final concentration of the samples.
Luciferase activity was assessed using OneGlow Luciferase assay (Promega) according to the manufacturer's method, after 24 h of incubation at 37° with 5% CO2 and 100% relative humidity. Luminescence signal was read on a Tecan F200 multiplate reader (Tecan) integrated with the robot.
The majority of the hits (Table 1) were then checked for reproducibility and cytotoxic activity, the most interesting compounds were also tested for dose-responsiveness. The same hits were subsequently subjected to counter-screening with the stable clone CHP134-CTRL#19 expressing the control pGL4.26-CTRL plasmid, to segregate plasmid promoter-dependent transcriptional control effects.
To verify the specificity of the CPX effect for the MYCN 3′UTR and its clone-independency, the treatment was repeated with the CHP134-MYCN#3 clone and the CHP134-CTRL#19 clones and with two independent others, again stably transfected with the pGL4.26-MYCN3UTR and the pGL4.26-CTRL plasmids (respectively, CHP134-MYCN#1 and the CHP134-CTRL#17 clones).
Treatment with CPX 2 uM and measurement of luciferase activity with the OneGlow luciferase assay after 24 h provided a confirmation of the screening results (FIG. 3).

[2] = system: CHP134-MYCN#3 neuroblastoma cell clone; assay: WST-1 cell cytotoxicity assay with selected hits at 2 uM; type: cell-based, human; details: MYCN-amplified neuroblastoma cells, 24 or 48 hours
Method: a) Cell cytotoxicity was performed by WST1 assay (Roche) following the manufacturer's instruction: 15000 cells were plated in each well of 96-well transparent Spectra Plate (Perkin Elmer) in 150 ul of complete media.
(§1) After adhesion, cells were treated with the selected drugs (Table 1) at 2 uM concentration and incubated at 37° with 5% CO2 and 100% relative humidity for 24 or 48 hours. At the defined endpoint, 15 uL of WST1 reagent were added and after 4 hours incubation at 37° with 5% CO2 and 100% relative humidity, plates were read for absorbance at 450 nm in a Tecan F200 multiplate reader (Tecan).
(§2) Different measurements were needed in order to calculate the percentage growth: time zero (Tz: that represent a measurement of the cell population at the time of drug addition), control growth (C: measures the growth of the cells treated with vehicle only after 24 or 48 hours) and test growth (Ti: that represent a measurement of the cell population after 24 or 48 hours). Percentage growth is calculated as:
[(Ti−Tz)/(C−Tz)]×100 eq. (2)
for concentrations for which Ti>=Tz;
for concentrations for which Ti<Tz.

[3] = system: CHP134 cells; assay: Annexin V-FITC / PI apoptosis assay by flow cytometry; type: cell-based, human; details: CHP134, 24 and 48 hr, different concentrations
Method: c) Apoptosis assay was performed by flow cytometry. CHP134 cells were seeded 10 cm-dishes at the concentration 1×10^6 cells under standard culture conditions. In three days cells were treated with CPX at different concentration for 24 and 48 hr. The cells were then harvested, washed with cold PBS and processed for apoptosis assay using the Annexin V-FITC Apoptosis Detection Kit I (BD Biosciences) by following the instructions of the manufacturer. Briefly, cells were stained with FITC-Annexin V and PI (Propidium Iodide) in order to allow for the identification of death cells (FITC and PI positive), viable cells (FITC and PI negative) and pre-apoptotic cells (FITC positive and PI negative). Flow cytometric analysis was performed with the BD FACS Canto (BD Biosciences).
The results are shown, in FIG. 6. Numbers indicate the percentage of apoptotic/dead cells (P1) and pre-apoptotic cells (P2) respectively.

[4] = system: MYCN protein; assay: immunofluorescence analysis of MYCN expression; type: cell-based, human; details: CHP134 cells, 24 h, different concentration of CPX
Method: To verify if the CPX enhancement effects on luciferase activity was accompanied by an increase in MYCN protein levels, an immunofluorescence analysis were performed on CHP134 cells plated in 96-well imaging plates (BD) and treated after adhesion for 24 h at different concentration of CPX. Cells were fixed by paraformaldehyde (PFA) 3.7%, permeabilized with 0.1% Triton X100, incubated with anti-MYCN mouse monoclonal antibody (ab16898, ABCAM) and stained with Alexafluor 488 rabbit anti-mouse secondary antibody.
Images were acquired by Operetta (Perkin Elmer) high content system and analyzed by the Harmony software.
Results represent fluorescence intensity in the nuclear area previously identified by DAPI staining.

[5] = rat; cited from earlier work
[6] = humans; deferiprone: iron overload treatment in transfused thalassemia patients; doxorubicin: high dose infusional in tumor bearing patients; cited from earlier work
[7] = system: CHP134 and SiMa neuroblastoma cell lines; assay: WST-1 dose-response cytotoxicity of ciclopirox olamine and piroctone olamine; type: cell-based, human; details: 0.33-100 μM, 48 hours
Method: as §1, with “different concentration of CPX ranging from 66 nM to 66” for “the selected drugs (Table 1) at 2”, “for” for “for 24 or”, “ul” for “uL”
as §2, with “after” for “after 24 or”, “hours treatment with CPX).” for “hours). Percentage growth is calculated as:”
Percentage growth is calculated as above by means of eq.s (2) and (3).
In order to understand if compounds of similar molecular structure to that of CPX could be also effective in inducing a cytotoxic activity, we treated two neuroblastoma cell lines, CHP134 and SiMa, with increasing concentrations of both compounds (0.33-1-3.3-10-33-100 μM), and we measured cytotoxicity after 48 hours as detailed before.

| Structure (SMILES) | dependence of luciferase reporter upregulation on MYCN 3′UTR (counter-screening) [1] | cytotoxicity [2] | acute lethal dose 50 (LD50) [5] [mg/kg] | plasma concentration [6] [µM] | further results |
| --- | --- | --- | --- | --- | --- |
| Cc1cc(C2CCCCC2)n(O)c(=O)c1 [ciclopirox olamine, CICLOPIROX OLAMINE] | truly dependent on MYCN 3′UTR | efficient cytotoxicity | 2350 |  | luciferase expression ([1]; CPX 2 uM, clones CHP134-MYCN#3, CHP134-MYCN#1, CHP134-CTRL#19, CHP134-CTRL#17): clone-independent, MYCN 3′UTR specific effect of increased luciferase expression; effect on cell viability: percentage of apoptotic/dead (P1) and pre-apoptotic (P2) cells [3]: increased percentage of apoptotic/dead cells; MYCN nuclear immunostaining (fluorescence intensity in the nuclear area) [4]: dose-dependent increase |
| COc1cccc2c1C(=O)c1c(O)c3c(c(O)c1C2=O)C[C@@](O)(C(C)=O)C[C@@H]3O[C@H]1C[C@H](N)[C@H](O)[C@H](C)O1 [daunorubicin, DAUNORUBICIN] | truly dependent on MYCN 3′UTR | efficient cytotoxicity |  |  |  |
| Cc1c(O)c(=O)ccn1C [deferiprone, 3-hydroxy-1,2-dimethylpyridin-4-one] |  |  | 2000 | ≥ 250 |  |
| COc1cccc2c1C(=O)c1c(O)c3c(c(O)c1C2=O)C[C@@](O)(C(=O)CO)C[C@@H]3O[C@H]1C[C@H](N)[C@H](O)[C@H](C)O1 [doxorubicin, DOXORUBICIN] | truly dependent on MYCN 3′UTR | efficient cytotoxicity | 10.5 | 0.1 |  |
| COc1cccc2c1C(=O)c1c(O)c3c(c(O)c1C2=O)C[C@@](O)(C(=O)CO)C[C@@H]3O[C@H]1C[C@H](N)[C@@H](O)[C@H](C)O1 [epirubicin, EPIRUBICIN HYDROCHLORIDE] |  | efficient cytotoxicity |  |  |  |
| Cc1cc(CC(C)CC(C)(C)C)n(O)c(=O)c1.NCCO (stereo not shown) [piroctone olamine] |  |  |  |  | cytotoxic activity compared with CPX [7]: even stronger activity |
